Test results taken from the NIST ThermoML archive (doi:10.1021/je7001368).
Numbers after ± are expanded uncertainties.

Assay: mn = molality of the nth substance listed, in mol/kg
Conditions: 101 kPa, Liquid

O=C([O-])CC(O)(CC(=O)[O-])C(=O)[O-].[K+].[K+].[K+] [potassium citrate] + O
Conditions	mass density [kg/m3]	speed of sound [m/s]
288.15 K, m1 = 0.0185	1002.99 ± 0.4	1470.8 ± 1.4
288.15 K, m1 = 0.0304	1005.44 ± 0.4	1473.4 ± 1.5
288.15 K, m1 = 0.031	1005.55 ± 0.4	1473.5 ± 1.5
288.15 K, m1 = 0.0558	1010.5 ± 0.42	1478.6 ± 1.5
288.15 K, m1 = 0.0899	1017.35 ± 0.45	1485.7 ± 1.5
288.15 K, m1 = 0.1258	1024.33 ± 0.48	1493.8 ± 1.5
288.15 K, m1 = 0.1931	1037.25 ± 0.54	1506.5 ± 1.5
288.15 K, m1 = 0.2653	1050.77 ± 0.61	1519.9 ± 1.6
288.15 K, m1 = 0.3412	1064.51 ± 0.69	1534.3 ± 1.6
288.15 K, m1 = 0.4565	1084.71 ± 0.83	1556.7 ± 1.7
288.15 K, m1 = 0.5796	1105.19 ± 0.98	1578.4 ± 1.8
288.15 K, m1 = 0.7446	1131.73 ± 1.2	1608.1 ± 1.9
293.15 K, m1 = 0.0185	1002.05 ± 0.4	1486.7 ± 1.5
293.15 K, m1 = 0.0304	1004.5 ± 0.4	1489.1 ± 1.5
293.15 K, m1 = 0.031	1004.61 ± 0.4	1489.3 ± 1.5
293.15 K, m1 = 0.0558	1009.51 ± 0.42	1494.3 ± 1.5
293.15 K, m1 = 0.0899	1016.3 ± 0.45	1501.1 ± 1.5
293.15 K, m1 = 0.1258	1023.23 ± 0.47	1509 ± 1.5
293.15 K, m1 = 0.1931	1036.06 ± 0.54	1521.2 ± 1.5
293.15 K, m1 = 0.2653	1049.48 ± 0.61	1534.2 ± 1.6
293.15 K, m1 = 0.3412	1063.13 ± 0.69	1548.1 ± 1.6
293.15 K, m1 = 0.4565	1083.21 ± 0.82	1569.7 ± 1.7
293.15 K, m1 = 0.5796	1103.58 ± 0.97	1590.6 ± 1.8
293.15 K, m1 = 0.7446	1129.91 ± 1.2	1619.4 ± 1.9
298.15 K, m1 = 0.0185	1000.87 ± 0.39	1500.8 ± 1.5
298.15 K, m1 = 0.0304	1003.29 ± 0.39	1503.2 ± 1.5
298.15 K, m1 = 0.031	1003.4 ± 0.39	1503.3 ± 1.5
298.15 K, m1 = 0.0558	1008.27 ± 0.41	1508.1 ± 1.5
298.15 K, m1 = 0.0899	1015.02 ± 0.44	1514.7 ± 1.5
298.15 K, m1 = 0.1258	1021.9 ± 0.47	1522.4 ± 1.5
298.15 K, m1 = 0.1931	1034.64 ± 0.53	1534.3 ± 1.5
298.15 K, m1 = 0.2653	1047.99 ± 0.6	1546.8 ± 1.6
298.15 K, m1 = 0.3412	1061.56 ± 0.68	1560.2 ± 1.6
298.15 K, m1 = 0.4565	1081.54 ± 0.81	1581.2 ± 1.7
298.15 K, m1 = 0.5796	1101.81 ± 0.96	1601.3 ± 1.8
298.15 K, m1 = 0.7446	1128.11 ± 1.2	1629.2 ± 1.9
303.15 K, m1 = 0.0185	999.449 ± 0.39	1513 ± 1.5
303.15 K, m1 = 0.0304	1001.86 ± 0.39	1515.4 ± 1.5
303.15 K, m1 = 0.031	1001.97 ± 0.39	1515.5 ± 1.5
303.15 K, m1 = 0.0558	1006.81 ± 0.41	1520.2 ± 1.5
303.15 K, m1 = 0.0899	1013.52 ± 0.43	1526.6 ± 1.5
303.15 K, m1 = 0.1258	1020.35 ± 0.46	1534.1 ± 1.5
303.15 K, m1 = 0.1931	1033.03 ± 0.53	1545.6 ± 1.6
303.15 K, m1 = 0.2653	1046.31 ± 0.6	1557.7 ± 1.6
303.15 K, m1 = 0.3412	1059.82 ± 0.68	1570.7 ± 1.6
303.15 K, m1 = 0.4565	1079.71 ± 0.81	1591.1 ± 1.7
303.15 K, m1 = 0.5796	1099.9 ± 0.95	1610.6 ± 1.8
303.15 K, m1 = 0.7446	1126.1 ± 1.2	1637.7 ± 1.9
308.15 K, m1 = 0.0185	997.814 ± 0.39	1523.6 ± 1.5
308.15 K, m1 = 0.0304	1000.21 ± 0.38	1525.9 ± 1.5
308.15 K, m1 = 0.031	1000.32 ± 0.38	1526.1 ± 1.5
308.15 K, m1 = 0.0558	1005.14 ± 0.4	1530.6 ± 1.5
308.15 K, m1 = 0.0899	1011.81 ± 0.43	1536.8 ± 1.5
308.15 K, m1 = 0.1258	1018.62 ± 0.46	1544.2 ± 1.5
308.15 K, m1 = 0.1931	1031.24 ± 0.52	1555.3 ± 1.6
308.15 K, m1 = 0.2653	1044.46 ± 0.59	1567.1 ± 1.6
308.15 K, m1 = 0.3412	1057.91 ± 0.67	1579.7 ± 1.6
308.15 K, m1 = 0.4565	1077.72 ± 0.8	1599.7 ± 1.7
308.15 K, m1 = 0.5796	1097.85 ± 0.94	1618.5 ± 1.8
308.15 K, m1 = 0.7446	1123.97 ± 1.2	1644.9 ± 1.9
313.15 K, m1 = 0.0185	995.982 ± 0.4	1532.7 ± 1.5
313.15 K, m1 = 0.0304	998.37 ± 0.39	1534.9 ± 1.5
313.15 K, m1 = 0.031	998.478 ± 0.39	1535 ± 1.5
313.15 K, m1 = 0.0558	1003.28 ± 0.39	1539.5 ± 1.5
313.15 K, m1 = 0.0899	1009.92 ± 0.42	1545.5 ± 1.5
313.15 K, m1 = 0.1258	1016.7 ± 0.45	1552.8 ± 1.5
313.15 K, m1 = 0.1931	1029.28 ± 0.51	1563.6 ± 1.6
313.15 K, m1 = 0.2653	1042.44 ± 0.58	1575 ± 1.6
313.15 K, m1 = 0.3412	1055.86 ± 0.66	1587.3 ± 1.6
313.15 K, m1 = 0.4565	1075.6 ± 0.79	1606.9 ± 1.7
313.15 K, m1 = 0.5796	1095.67 ± 0.94	1625.1 ± 1.8
313.15 K, m1 = 0.7446	1121.72 ± 1.1	1650.8 ± 1.9
